For 2 molecules, BA content released, estimated exchange rate and Kex results are on record in US20250288206A1, “SYSTEMS AND METHODS FOR MONITORING OF DELIVERY OF LABEL-FREE DRUGS” (City University of Hong Kong, priority 2024, published 2025).

The nature of series [1]: Release study of BA-DMSO liposome by dialysis (CEST MRI and UV 257 nm). The format is physicochemical. The note with it: at the end of dialysis, BA in 10% DMSO in liposomes. Here is the method:
The size, polydispersity index (PDI), and surface charge of DMSO liposome were measured by dynamic light scattering using Zetasizer (Malvern Instruments, UK). Liposome concentration was measured by light scattering using NanoSight (Malvern Instruments, UK). To study the release property, dialysis cassettes with molecular weight cut-off of 10 kDa (Thermo Fisher, Waltham, USA) were used. The cassettes were first hydrated in HBS for 2 minutes. 1 mL of liposome sample was then loaded into the membrane chamber of two separate cassettes and excess air was removed by gentle squeezing of the membrane. The loaded cassettes were submerged into two beakers with 50 mL HBS at 37° C. At 15 min, 30 min, 1 hour, and 3 hour, 200 μL of dialyzed liposomes were taken out for CEST MRI measurement. In the other dialysis cassette, 1 mL of dialysis medium were taken out from the cassette at each timepoint for UV spectrometric measurement at an absorbance of 257 nm, and 1 mL of fresh medium was added after each time the medium was taken out. The retention of drug within liposome before and after dialysis was determined by measuring the UV absorbance of the supernatant obtained by treating liposome solutions with 10% Triton-X solution, sonicating at 42° C. for 1 hour, and centrifuging at 10,000 rpm. Concentration of BA was determined from BA standard curve.

The nature of series [2]: Bloch-McConnell fitting of DMSO CEST peak. The series is classed as physicochemical. The note with it: 10% v/v DMSO. How it is done: During the course leading to the present invention, a series of internal and external factors that can influence DMSO's CEST effect were examined. DMSO's concentration linearly correlated with observed signal magnitude, while the change in signal when varying pH from pH 5.5 to pH 8 was less obvious. As temperature went down from 40° C. to 20° C., DMSO's CEST peak gradually moved upfield (please see FIGS. 1F to 1G). It appears that intermolecular interaction between DMSO and water was dependent on temperature. […] Exchange rate and was estimated with Bloch-McConnell fitting. Input of solute concentration was 1.41 M (molar concentration of 10% v/v DMSO) multiplied by a factor of 1.4, which was an estimation of concentration of “structured” water that formed by intermolecular interaction with DMSO and thereby served as relaying sites.

As for `O=C1CC(=O)NC(=O)N1` [BA, barbituric acid], in series [1], the BA content released result was “around 80%”.

On to `C[S+](C)[O-]` [DMSO, dimethyl sulfoxide], for which the estimated exchange rate entry in series [2] (Bloch-McConnell fitting) was “around 2 Hz”. This molecule also came in with a Kex in series [2] (fitted value, B0 3T, B1 1.2 μT, Tsat 4 s) of 2.1341 s⁻¹.
